Here are results for four compounds from patent US20100076010A1, “ALPHA 1A-ADRENOCEPTOR ANTAGONISTS” (CONCERT Pharmaceuticals, Inc., priority 2007, published 2010).

A short description of this data set: Evaluation of metabolic stability in human liver microsomes. The following applies: for half-life at 1 μM: in vitro t1/2, 0.5 mg/mL human liver microsomes, 1 μM test compound, 2 mM NADPH, pH 7.4, 37° C., 0-30 minutes, average of two experiments, read-out: Half-life (t1/2) (min) ± SD; for Increase over Silodosin (%): increase of HLM half-life relative to silodosin. It counts as in vitro ADME. How it is done: Evaluation of Metabolic Stability in Human Liver Microsomes. Human liver microsomes (“HLM”; 20 mg/mL) were obtained from Xenotech, LLC (Lenexa, Kans.). β-nicotinamide adenine dinucleotide phosphate, reduced form (NADPH), magnesium chloride (MgCl2), and dimethyl sulfoxide (DMSO) were purchased from Sigma-Aldrich.
Stock solutions of Compounds 108, 110, 111 and silodosin (7.5 mM) were separately prepared in DMSO. The 7.5 mM stock solutions were diluted to 50 μM in acetonitrile (ACN). The 20 mg/mL human liver microsomes were diluted to 0.625 mg/mL in 0.1 M potassium phosphate buffer, pH 7.4, containing 3 mM MgCl2. The diluted microsomes (375 μL) were added to wells of a 96-well deep-well polypropylene plate in triplicate. Ten μL of the 50 μM test compound solution was added to the microsomes and the mixture was pre-warmed for 10 minutes. Reactions were initiated by addition of 125 μL, of pre-warmed NADPH solution (8 mM NADPH in 0.1M potassium phosphate buffer, pH 7.4, containing 3 mM MgCl2). The final reaction volume was 0.5 mL and contains 0.5 mg/mL human liver microsomes, 1 μM test compound, and 2 mM NADPH in 0.1 M potassium phosphate buffer, pH 7.4, and 3 mM MgCl2. The reaction mixtures were incubated at 37° C., and 50 μL aliquots were removed at 0, 5, 10, 20, and 30 minutes and added to shallow-well 96-well plates which contain 50 μL of ice-cold ACN with internal standard to stop the reactions. The plates were stored at 4° C. for 20 minutes after which 100 μL of water was added to the wells of the plate before centrifugation to pellet precipitated proteins. Supernatants were transferred to another 96-well plate and analyzed for amounts of parent remaining by LC-MS/MS using an Applied Bio-systems API 4000 mass spectrometer.
The in vitro t1/2s for test compounds were calculated from the slopes of the linear regression of % parent remaining (ln) vs incubation time relationship. in vitro t1/2=0.693/k, where k=−[slope of linear regression of % parent remaining(ln) vs incubation time]. The experiment was performed twice. Data analysis was performed using Microsoft Excel Software.

As for `[2H]C([2H])(O)C([2H])([2H])C([2H])([2H])N1CCc2cc(C[C@@H](C)NCCOc3ccccc3OCC(F)(F)F)cc(C(N)=O)c21` [Compound 111, (R)-1-(3-Hydroxy-(1,1,2,2,3,3-d6)-propyl)-5-(2-(2-(2-(2,2,2-trifluoroethoxy)-phenoxy)ethylamino)propyl)indoline-7-carboxamide], the half-life at 1 μM came to 32 ± 0.1 min and the “Increase over Silodosin (%)” value was 0%. The like results for `[2H]C([2H])(O)C([2H])([2H])C([2H])([2H])N1CCc2cc(C[C@@H](C)NC([2H])([2H])C([2H])([2H])Oc3ccccc3OC([2H])([2H])C(F)(F)F)cc(C(N)=O)c21` [Compound 108, (R)-1-(3-Hydroxy-(1,1,2,2,3,3-d6)-propyl)-5-(2-(2-(2-(2,2,2-trifluoro-1,1-d2-ethoxy)phenoxy)-(1,1,2,2-d4)-ethylamino)propyl)indoline-7-carboxamide] were, in that order, 44 ± 1.2 min and 21%. As for `C[C@H](Cc1cc2c(c(C(N)=O)c1)N(CCCO)CC2)NCCOc1ccccc1OCC(F)(F)F` [Silodosin, (R)-1-(3-hydroxypropyl)-5-(2-(2-(2-(2,2,2-trifluoroethoxy)phenoxy)ethylamino)-propyl)indoline-7-carboxamide, reference compound], the half-life at 1 μM was determined as 37 ± 0.1 min. For the compound `[2H]C([2H])(N[C@H](C)Cc1cc2c(c(C(N)=O)c1)N(CCCO)CC2)C([2H])([2H])Oc1ccccc1OC([2H])([2H])C(F)(F)F` [Compound 110, (R)-1-(3-hydroxypropyl)-5-(2-(2-(2-(2,2,2-d2-trifluoroethoxy)phenoxy)-d4-ethylamino)propyl)indoline-7-carboxamide], the half-life at 1 μM came out at 43 ± 10 min and the “Increase over Silodosin (%)” value came to 17%.
